Data published in patent US20250032454A1, “KDM1A INHIBITORS FOR THE TREATMENT OF DISEASE” (Imago Biosciences, Inc., priority 2021, published 2025).
Read-outs that look alike come from different tables or passages of the source.

Legend:
MV4;11 cells = experiment: Cell Titer-Glo cell growth inhibition in MV4;11 cell line (Day 5 / Day 10); assay type: cell-based
Procedure: Cell growth inhibition against MV4;11 cells was confirmed for the synthetic compounds. The Cell Titer-Glo Luminescent Cell Viability Assay (Promega, USA) was used to determine the number of viable cells in culture based on quantitation of the ATP present, which signals the presence of metabolically active cells. This assay was run in a 96-well plate format arrayed in a 10-point dose curve, ranging from 0 to 50 µM with 4-fold dilutions for each compound. Cells are seeded on Day 0 at 3750 cells per well. At Day 5, a portion of each well is assayed for viability according to the Cell Titer-Glo protocol. Briefly, cells/plates were centrifuged at 1100×g for 5 minutes. 100 μL of media was removed from each well and replaced with 100 μL of CellTiter-Glo. The plates were shaken at room temperature for 10 minutes and measured on a luminescence plate reader. Another portion of each well from the Day 5 plate is used to seed a new 96 plate containing fresh compound and media set up in the equivalent 10-point dose curve array in order to continue the cell growth inhibition assay for another 5 days. A final timepoint is collected at Day 10 using the Cell Titer-Glo protocol. Luminescence was detected on an En Vision® Multilabel Plate Reader (Perkin Elmer, Waltham, Mass.) and IC50 determination was made using Graph Pad Prism software.

LSD1 = LSD1 (Homo sapiens, UniProt O60341); experiment: LSD1 fluorescence coupling enzyme assay (HRP/Amplex Red, H3(1-21)K4me2 peptide), 10-dose IC50; assay type: biochemical; settings: 10 μM histone H3(1-21)K4me2 peptide substrate, 3-fold serial dilution from 100 μM
How it was run: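 Fluorescence coupled assay: LSD1 demethylation of 10 μM H3(1-21)K4me2 peptide produces FAD-dependent H2O2, detected via HRP/Amplex Red as resorufin (Ex/Em 535/590 nm). IC50 from 10 doses, 3-fold serial dilution from 100 μM, in duplicate.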

[1] = Homo sapiens, MV4-11, 120 h, Day 5, read-out: Cell Titer-Glo IC50 (5 d)
[2] = Homo sapiens, MV4-11, 240 h, Day 10, read-out: Cell Titer-Glo IC50 (10 d)
[3] = Homo sapiens, 120 h, Day 5, read-out: Cell Titer-Glo IC50 (5 d)
[4] = Homo sapiens, 240 h, Day 10, read-out: Cell Titer-Glo IC50 (10 d)

IC50 (MV4;11 cells; [1]) | IC50 (MV4;11 cells; [2]) | IC50 (LSD1) | IC50 (MV4;11 cells; Day 5, read-out: Cell Titer-Glo IC50 (5 d)) | IC50 (MV4;11 cells; Day 10, read-out: Cell Titer-Glo IC50 (10 d)) | SMILES | IC50 (MV4;11 cells; [3]) | IC50 (MV4;11 cells; [4])
< 500 nM | < 500 nM | < 500 nM | – | – | N#Cc1ccc(-c2cc(NC[C@@H]3CCCNCC3)nn2-c2ccc(N3CCCC3)cc2)cc1F (single isomer, unassigned) [Example 24a] | – | –
< 500 nM | < 500 nM | < 500 nM | – | – | N#Cc1ccc(-c2cc(NC[C@H]3CCCNCC3)nn2-c2ccc(N3CCCC3)cc2)cc1F (single isomer, unassigned) [Example 24b] | – | –
< 500 nM | < 500 nM | < 500 nM | – | – | N#Cc1ccc(-c2cc(NC[C@@H]3CCCNCC3)nn2-c2ccc(C(=O)N3CCCC3)cc2)cc1F (single isomer, unassigned) [Example 25a] | – | –
1000 to 10000 nM | < 500 nM | < 500 nM | – | – | N#Cc1ccc(-c2cc(NC[C@H]3CCCNCC3)nn2-c2ccc(C(=O)N3CCCC3)cc2)cc1F (single isomer, unassigned) [Example 25b] | – | –
< 500 nM | < 500 nM | < 500 nM | – | – | N#Cc1ccc(-c2cc(NC[C@@H]3CCCNCC3)nn2-c2ccc(N3CCS(=O)(=O)CC3)cc2)cc1F (single isomer, unassigned) [Example 26a] | – | –
< 500 nM | < 500 nM | < 500 nM | – | – | N#Cc1ccc(-c2cc(NC[C@H]3CCCNCC3)nn2-c2ccc(N3CCS(=O)(=O)CC3)cc2)cc1F (single isomer, unassigned) [Example 26b] | – | –
500 to 1000 nM | < 500 nM | < 500 nM | – | – | N#Cc1ccc(-c2cc(NC[C@@H]3CCCNCC3)nn2-c2ccc(N3CCN(CCO)CC3)cc2)cc1F (single isomer, unassigned) [Example 27a] | – | –
< 500 nM | < 500 nM | < 500 nM | – | – | N#Cc1ccc(-c2cc(NC[C@H]3CCCNCC3)nn2-c2ccc(N3CCN(CCO)CC3)cc2)cc1F (single isomer, unassigned) [Example 27b] | – | –
1000 to 10000 nM | < 500 nM | 500 to 1000 nM | – | – | COc1ccc(-n2nc(NCC3CC3N)cc2-c2ccc(C#N)c(F)c2)cc1 (single isomer, unassigned) [Example 29a, 4-(3-(((2-aminocyclopropyl)methyl)amino)-1-(4-methoxyphenyl)-1H-pyrazol-5-yl)-2-fluorobenzonitrile] | – | –
– | – | < 500 nM | 1000 to 10000 nM | < 500 nM | COc1ccc(-n2nc(NCC3CC3N)cc2-c2ccc(C#N)c(F)c2)cc1 (single isomer, unassigned) [Example 29b, 4-(3-(((2-aminocyclopropyl)methyl)amino)-1-(4-methoxyphenyl)-1H-pyrazol-5-yl)-2-fluorobenzonitrile] | – | –
1000 to 10000 nM | – | < 500 nM | – | – | CN[C@H]1CCCC(CNc2cc(-c3ccc(C#N)c(F)c3)n(-c3ccc(OC)cc3)n2)C1 (single isomer, unassigned) [Example 32a] | – | –
1000 to 10000 nM | – | 1000 to 10000 nM | – | – | CN[C@@H]1CCCC(CNc2cc(-c3ccc(C#N)c(F)c3)n(-c3ccc(OC)cc3)n2)C1 (single isomer, unassigned) [Example 32b] | – | –
1000 to 10000 nM | – | 500 to 1000 nM | – | – | CN[C@H]1CCC[C@H](CNc2cc(-c3ccc(C#N)c(F)c3)n(-c3ccc(OC)cc3)n2)C1 (single isomer, unassigned) [Example 33a] | – | –
1000 to 10000 nM | – | < 500 nM | – | – | CN[C@@H]1CCC[C@@H](CNc2cc(-c3ccc(C#N)c(F)c3)n(-c3ccc(OC)cc3)n2)C1 (single isomer, unassigned) [Example 33b] | – | –
> 10000 nM | – | > 10000 nM | – | – | COc1ccc(-n2nc(N)cc2-c2ccc(C#N)c(F)c2)cc1 [Example 1, 4-(3-Amino-1-(4-methoxyphenyl)-1H-pyrazol-5-yl)-2-fluorobenzonitrile] | – | –
< 500 nM | – | < 500 nM | – | – | COc1ccc(-n2nc(NCC3CCNCC3)cc2-c2ccc(C#N)c(F)c2)cc1 [Example 2, 2-Fluoro-4-(1-(4-methoxyphenyl)-3-((piperidin-4-ylmethyl)amino)-1H-pyrazol-5-yl)benzonitrile] | – | –
< 500 nM | – | < 500 nM | – | – | COc1ccc(-n2nc(NCC3CCCNC3)cc2-c2ccc(C#N)c(F)c2)cc1 (centres unmarked) [Example 3, 2-fluoro-4-(1-(4-methoxyphenyl)-3-((piperidin-3-ylmethyl)amino)-1H-pyrazol-5-yl)benzonitrile] | – | –
< 500 nM | – | < 500 nM | – | – | COc1ccc(-n2nc(NCC3CCNC3)cc2-c2ccc(C#N)c(F)c2)cc1 (centres unmarked) [Example 8, 2-fluoro-4-(1-(4-methoxyphenyl)-3-((pyrrolidin-3-ylmethyl)amino)-1H-pyrazol-5-yl)benzonitrile] | – | –
< 500 nM | – | < 500 nM | – | – | Cn1cc2cc(-n3nc(NCC4CCCNC4)cc3-c3ccc(C#N)c(F)c3)ccc2n1 (centres unmarked) [Example 9, 2-Fluoro-4-(1-(2-methyl-2H-indazol-5-yl)-3-((piperidin-3-ylmethyl)amino)-1H-pyrazol-5-yl)benzonitrile] | – | –
< 500 nM | – | < 500 nM | – | – | Cn1cc2cc(-n3nc(NCC4CCNCC4)cc3-c3ccc(C#N)c(F)c3)ccc2n1 [Example 10, 2-Fluoro-4-(1-(2-methyl-2H-indazol-5-yl)-3-((piperidin-4-ylmethyl)amino)-1H-pyrazol-5-yl)benzonitrile] | – | –
1000 to 10000 nM | – | 500 to 1000 nM | – | – | COc1ccc(-n2nc(NC[C@@H]3CCC[C@@H](N)C3)cc2-c2ccc(C#N)c(F)c2)cc1 [Example 11RR, 4-(3-((((1R,3R)-3-aminocyclohexyl)methyl)amino)-1-(4-methoxyphenyl)-1H-pyrazol-5-yl)-2-fluorobenzonitrile] | – | –
1000 to 10000 nM | < 500 nM | 500 to 1000 nM | – | – | Cc1ccc(-n2nc(NC[C@@H]3CCC[C@@H](N)C3)cc2-c2ccc(C#N)c(F)c2)cc1 [Example 12RR, 4-(3-((((1R,3R)-3-aminocyclohexyl)methyl)amino)-1-(p-tolyl)-1H-pyrazol-5-yl)-2-fluorobenzonitrile] | – | –
< 500 nM | < 500 nM | < 500 nM | – | – | Cc1ccc(-n2nc(NC[C@H]3CCC[C@H](N)C3)cc2-c2ccc(C#N)c(F)c2)cc1 [Example 12SS, 4-(3-((((1S,3S)-3-aminocyclohexyl)methyl)amino)-1-(p-tolyl)-1H-pyrazol-5-yl)-2-fluorobenzonitrile] | – | –
1000 to 10000 nM | < 500 nM | < 500 nM | – | – | Cn1cc2cc(-n3nc(NC[C@@H]4CCC[C@@H](N)C4)cc3-c3ccc(C#N)c(F)c3)ccc2n1 [Example 13RR, 4-(3-((((1R,3R)-3-aminocyclohexyl)methyl)amino)-1-(2-methyl-2H-indazol-5-yl)-1H-pyrazol-5-yl)-2-fluorobenzonitrile] | – | –
– | < 500 nM | < 500 nM | – | – | Cn1cc2cc(-n3nc(NC[C@H]4CCC[C@H](N)C4)cc3-c3ccc(C#N)c(F)c3)ccc2n1 [Example 13SS, 4-(3-((((1S,3S)-3-aminocyclohexyl)methyl)amino)-1-(2-methyl-2H-indazol-5-yl)-1H-pyrazol-5-yl)-2-fluorobenzonitrile] | – | –
< 500 nM | < 500 nM | < 500 nM | – | – | Cn1nc2ccc(-n3nc(NC[C@@H]4CCC[C@@H](N)C4)cc3-c3ccc(C#N)c(F)c3)cc2c1Cl [Example 14RR, 4-(3-((((1R,3R)-3-aminocyclohexyl)methyl)amino)-1-(3-chloro-2-methyl-2H-indazol-5-yl)-1H-pyrazol-5-yl)-2-fluorobenzonitrile] | – | –
– | < 500 nM | < 500 nM | – | – | Cn1nc2ccc(-n3nc(NC[C@H]4CCC[C@H](N)C4)cc3-c3ccc(C#N)c(F)c3)cc2c1Cl [Example 14SS, 4-(3-((((1S,3S)-3-aminocyclohexyl)methyl)amino)-1-(3-chloro-2-methyl-2H-indazol-5-yl)-1H-pyrazol-5-yl)-2-fluorobenzonitrile] | – | –
< 500 nM | < 500 nM | < 500 nM | – | – | N#Cc1ccc(-c2cc(NC[C@H]3CCC[C@H](N)C3)nn2-c2ccc3c(cnn3-c3ccccc3)c2)cc1F [Example 15, 4-(3-((((1S,3S)-3-aminocyclohexyl)methyl)amino)-1-(1-phenyl-1H-indazol-5-yl)-1H-pyrazol-5-yl)-2-fluorobenzonitrile] | – | –
< 500 nM | < 500 nM | < 500 nM | – | – | N#Cc1ccc(-c2cc(NC[C@H]3CCC[C@H](N)C3)nn2-c2ccc3nn(-c4ccccc4)cc3c2)cc1F [Example 16, 4-(3-((((1S,3S)-3-aminocyclohexyl)methyl)amino)-1-(2-phenyl-2H-indazol-5-yl)-1H-pyrazol-5-yl)-2-fluorobenzonitrile] | – | –

SMILES | IC50 (MV4;11 cells; [1]) | IC50 (MV4;11 cells; [2]) | IC50 (LSD1) | IC50 (MV4;11 cells; Day 5, read-out: Cell Titer-Glo IC50 (5 d)) | IC50 (MV4;11 cells; Day 10, read-out: Cell Titer-Glo IC50 (10 d)) | IC50 (MV4;11 cells; [3]) | IC50 (MV4;11 cells; [4])
Cn1ncc2cc(-n3nc(NC[C@@H]4CN5CCC4CC5)cc3-c3ccc(C#N)c(F)c3)ccc21 (single isomer, unassigned) [Example 31a] | – | – | < 500 nM | – | – | 1000 to 10000 nM | < 500 nM
Cn1ncc2cc(-n3nc(NC[C@H]4CN5CCC4CC5)cc3-c3ccc(C#N)c(F)c3)ccc21 (single isomer, unassigned) [Example 31b] | – | – | < 500 nM | – | – | 500 to 1000 nM | < 500 nM
